The numbers were not newly measured in US7589137B2, “Resin composition and molded product obtained therefrom” (Sony Corporation, priority 2005, dated 2009), which cites them from elsewhere.

One may read the LD50 as the dose expected to kill half of the subjects tested.

The conditions of the data set: safety to a living body.

Consider `Cc1cc(O)nc(O)n1` [6-methyluracil], for which the LD50 is 64500 mg/kg.
For `O=c1cc[nH]c(=O)[nH]1` [Uracil, uracil], the LD50 entry is “several”.
